Data set [1] concerns lambs with acute pulmonary hypertension. The settings on record: cited from earlier work; for pulmonary vasodilation / transpulmonary cGMP release / effect on mean arterial pressure / systemic arterial oxygenation: inhaled microparticles; for pulmonary vasodilation / transpulmonary cGMP release: U-46619-induced pulmonary hypertension; for effect on pulmonary vasodilation induced by iNO: BAY 41-8543 inhaled microparticles, ODQ intravenous.

In a further data set the test system is obese mice. The note with it: cited from earlier work.
For another data set, the system named is NO-deficient rats. The settings on record: cited from earlier work.
Data set [2] addresses T1, human recombinant soluble guanylate cyclase enzyme α1β1 (Homo sapiens, UniProt Q02108+Q02153).
T1 construct: purchased Enzo Life Sciences ALX-201-177
T1 sequence (Q02108 1-690): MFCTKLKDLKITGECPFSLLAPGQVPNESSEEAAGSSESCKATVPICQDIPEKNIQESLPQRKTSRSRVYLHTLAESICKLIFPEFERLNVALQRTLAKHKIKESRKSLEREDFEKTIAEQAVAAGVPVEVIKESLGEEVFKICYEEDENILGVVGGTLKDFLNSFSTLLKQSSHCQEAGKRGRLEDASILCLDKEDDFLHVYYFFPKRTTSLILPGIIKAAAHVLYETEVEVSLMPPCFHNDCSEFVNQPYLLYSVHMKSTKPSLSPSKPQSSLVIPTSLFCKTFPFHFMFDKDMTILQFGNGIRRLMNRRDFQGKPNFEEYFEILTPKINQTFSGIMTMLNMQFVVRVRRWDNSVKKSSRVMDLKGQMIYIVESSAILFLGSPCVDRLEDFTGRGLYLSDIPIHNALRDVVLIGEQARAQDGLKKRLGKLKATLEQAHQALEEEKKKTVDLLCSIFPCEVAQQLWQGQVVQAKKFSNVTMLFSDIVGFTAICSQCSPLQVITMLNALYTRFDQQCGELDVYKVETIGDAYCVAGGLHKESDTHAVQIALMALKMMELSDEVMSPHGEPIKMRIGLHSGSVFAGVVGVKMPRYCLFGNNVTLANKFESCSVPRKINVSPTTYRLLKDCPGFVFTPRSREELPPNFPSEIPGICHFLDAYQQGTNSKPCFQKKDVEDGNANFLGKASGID
T1 sequence (Q02153 1-619): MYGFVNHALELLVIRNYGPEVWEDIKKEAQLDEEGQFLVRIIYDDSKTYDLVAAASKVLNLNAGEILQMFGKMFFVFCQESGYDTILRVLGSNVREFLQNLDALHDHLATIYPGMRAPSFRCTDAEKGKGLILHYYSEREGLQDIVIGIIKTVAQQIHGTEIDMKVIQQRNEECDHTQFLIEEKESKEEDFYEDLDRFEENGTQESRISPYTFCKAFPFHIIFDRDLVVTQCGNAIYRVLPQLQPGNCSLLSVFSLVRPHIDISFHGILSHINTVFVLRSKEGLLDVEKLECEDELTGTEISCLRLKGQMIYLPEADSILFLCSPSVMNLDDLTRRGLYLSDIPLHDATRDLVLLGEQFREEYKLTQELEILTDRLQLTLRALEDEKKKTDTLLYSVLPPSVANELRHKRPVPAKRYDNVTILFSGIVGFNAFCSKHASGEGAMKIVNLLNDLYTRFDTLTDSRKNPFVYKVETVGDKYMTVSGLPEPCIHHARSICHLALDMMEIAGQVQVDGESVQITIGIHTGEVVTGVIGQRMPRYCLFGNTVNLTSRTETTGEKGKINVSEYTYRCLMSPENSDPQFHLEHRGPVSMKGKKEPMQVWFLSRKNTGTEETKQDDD
In words: Purified human recombinant sGC α1β1 enzyme assay in the presence of DETA-NONOate (cGMP HTRF). It counts as biochemical. The note with it: 30 uM DETA NONOate; 50% of maximal response of 30 uM Compound Y; read-out: sGC_Enz_HTRF_a1b1 EC50/IC50 Abs (Norm) (nM) Binned. The protocol: Purified human recombinant soluble guanylate cyclase enzyme α1β1(h sGC) obtained from Enzo Life Sciences (P/N: ALX-201-177) was used to evaluate the activity of test compounds. The assay reactions contained 0.1 M Tris (pH 8.0), 0.5 mg/mL BSA, 2 mM DTT, 4 mM MgCl2, 30 uM DETA NONOate (Enzo Life Science P/N: ALX-430-014), and 12.5 ng/ml human soluble guanylate cyclase enzyme. […] Guanosine 5′-triphosphate (Sigma-Aldrich P/N: G8877) was added to a final concentration of 300 μM and enzyme reactions were incubated (100 μL, 384-well plate format) at 37° C. for 20 minutes. The controls contained 3% DMSO (low control), or 30 uM of Compound Y (high control). After the 20 minute incubation, the reaction was stopped with the addition of 100 μL of ice cold 20% acetic acid.
cGMP concentrations in all samples were determined using the cGMP HTRF (Cisbio P/N: 62GM2PEC) assay per manufacturer's instructions. A cGMP standard curve was fit using a 4-parameter fit (log(inhibitor) vs. response—variable slope) using GraphPad Prism Software v.6. Samples were diluted appropriately to ensure that values fell within the linear range of the standard curve.
Data were fit using a 4-parameter fit (log(agonist) vs. response—variable slope) using GraphPad Prism Software v.6.
On the technique in general: Time-resolved FRET reads energy transfer from a long-lived donor to a nearby acceptor.

For data set [3], the system named is Guinea pig tracheal smooth muscle. In words: Electrical field stimulated guinea pig tracheal smooth muscle (ex vivo) bronchodilation model. The note with it: inhibition of EFS-induced baseline contraction; 95% Cl, 0.78-0.94. The protocol:
It is possible to assess the bronchodilating effects of sGC stimulators by using the system described below. […]
On each experimental day, a guinea pig is killed by exposure to a rising concentration of CO2 and the trachea removed. […] Tissues are washed with Kreb's buffer and stimulated using the previously determined sub-maximal voltage for 1 hour to establish a stable baseline contraction prior to assessment of compound activity.
A cumulative dose response curve (DRC) to each test substance is then performed and changes in smooth muscle contraction measured. The effect of each test substance in each experiment is expressed as a percentage inhibition of the baseline contraction, normalized to the relevant vehicle controls. […] The data from all three experiments are pooled, the DRC plotted, and the test substance potency and efficacy determined.

The test system of a further data set is sickle mice. The note with it: oral, high doses; cited from earlier work.
The test system of data set [4] is sickle cell disease patients. The note with it: cited from earlier work.
The next data set relates to mdx mouse. The note with it: cited from earlier work.
Data set [5] has as its system adult sickle cell disease patients. The settings on record: infusions; cited from earlier work.
Data set [6] has as its system adult patients with sickle cell disease. The note with it: acute VOE, vs placebo; cited from earlier work.

On to `Nc1nc(-c2nn(Cc3ccccc3F)c3ncccc23)ncc1C1CC1` [BAY 41-2272], for which, in data set [1], the pulmonary vasodilation result was “dose dependent pulmonary vasodilation”, the “transpulmonary cGMP release” value was “increased” and the “effect on mean arterial pressure” value is listed as “without significant effect”.

`Nc1nc(-c2nn(Cc3ccccc3F)c3ncccc23)nc(N)c1N1CCOCC1` [BAY 41-8543]: in [1], the “effect on pulmonary vasodilation induced by iNO” value was “augmented”, the pulmonary vasodilation result is “dose dependent pulmonary vasodilation”, the “transpulmonary cGMP release” value was “increased” and the “effect on mean arterial pressure” value is recorded as “without significant effect”. Besides, in [1], the systemic arterial oxygenation result is “increased”.

With `O=C(O)CCCCN(CCc1ccccc1OCc1ccc(CCc2ccccc2)cc1)Cc1ccc(C(=O)O)cc1` [BAY 58-2667], in data set [1] (inhaled microparticles after ODQ), the “pulmonary vasodilation and transpulmonary cGMP release after treatment with ODQ” value was “greatly enhanced”. In data set [1], the pulmonary vasodilation result is reported as “dose dependent pulmonary vasodilation”, the “transpulmonary cGMP release” value is “increased”, the “effect on mean arterial pressure” value is reported as “without significant effect” and the systemic arterial oxygenation entry is “increased”.

In the case of `O=C(O)CCCCN(CCc1cc(F)ccc1OCc1ccc(-c2ccc(C(F)(F)F)cc2)cc1)Cc1ccc(C(=O)O)cc1` [BAY 60-2770], the overactive bladder entry with obese mice is “ameliorates overactive bladder”.

In the case of `Nc1nc(-c2nn(Cc3ccccc3F)c3ncccc23)ncc1C1CC1` [BAY-2272], the bladder dysfunction entry in the data set on NO-deficient rats was “protective effects”.

For the compound `COc1cc(-c2ncc(F)c(N3CCn4c(n[nH]c4=O)C3)n2)nn1Cc1ccccc1F` [Compound I-2], the EC50 in data set [2] is 1000 to 5000 nM.

With `COc1cc(-c2ncc(F)c(N3CCc4cn[nH]c4C3)n2)nn1Cc1ccccc1F` [Compound I-6], the EC50 in data set [2] is 1000 to 5000 nM.

As to `CC(=O)c1cc(-c2ncc(F)c(N3CCn4c(n[nH]c4=O)C3)n2)nn1Cc1ccccc1F` [Compound I-14], the EC50 in data set [2] was 1000 to 5000 nM.

`CC(=O)c1cc(-c2ncc(F)c(N3CCc4[nH][nH]c(=O)c4C3)n2)nn1Cc1ccccc1F` [Compound I-16]: the EC50 in data set [2] fell in the range of 1000 to 5000 nM.

As for `CC(C)[N+]1(C)[C@@H]2CC[C@H]1CC(OC(=O)C(CO)c1ccccc1)C2` (stereo partly drawn) [Ipratropium bromide], the 50% inhibitory concentration (IC50) (commonly the concentration that gives 50% inhibition) in [3] stood at 0.86 nM.

As for `N=C(N)NCCC[C@H](N)C(=O)O` [L-arginine], in the data set with sickle mice, the “Gardos channel activity, dense cell formation and hemolysis” value is given as “decrease”.

On to `O=c1onc2cnc3ccccc3n12` [ODQ, 1H-[1,2,4]oxadiazolo[4,3-a]quinoxalin-1-one], for which the “effect on pulmonary vasodilation induced by iNO” value in data set [1] is “markedly reduced”.

Consider `CCCc1nn(C)c2c(=O)[nH]c(-c3cc(S(=O)(=O)N4CCN(C)CC4)ccc3OCC)nc12` [sildenafil], for which the “serious side effects (VOE, headache, visual disturbance)” value in [4] (Walk-PHaSST multicenter trial, stopped prematurely) is recorded as “higher frequency of serious side effects”. Also, the “PAP and exercise capacity” value in data set [4] (sickle cell disease patients with severe PHT) was “improvements”. Further, the “muscle ischemia, injury and fatigue after a brief bout of exercise” value in the data set with mdx mouse was “alleviate muscle ischemia”.

Consider `O=NO` [sodium nitrite], for which the forearm blood flow entry in [5] was “enhanced”.

As for nitric oxide [inhaled NO], in data set [6], the pain scores entry is “significantly reduced”.
